Common to all, as to type: in vivo, Litopenaeus vannamei
For data set [1], the system named is white spot syndrome virus (WSSV). Nature of the data set: Pre-exposure (pre-treatment) of larvae to compound before WSSV infection. The settings on record: for change in copy number of the viral genome, pre-exposure vs virus alone: larvae exposed up to 8 h prior to WSSV infection, 10 mg/L; for time to which shrimp death was delayed: pre-exposure 10 mg/L, untreated 100% mortality by 72 h. As to the method:
For pre-treatment, C2/C7 (final concentration of 10 mg/L) was applied to shrimp larvae for 1, 4, and 8 h, followed by addition of WSSV (while the coumarin compounds were simultaneously removed) at a final viral titer of 1.6 × 10^5 copies/µL. The surviving shrimps were euthanized with MS-222 and frozen at −80 °C until being processed. The copy number of viral genome in samples was quantified by RT-qPCR.

The test system of data set [2] is Shrimp (L. vannamei) larvae. Briefly: Acute toxicity assay in shrimp larvae. The settings on record: after 72 h of exposure. As to the method: Shrimp (L. vannamei) larvae (total length: 0.5 ± 0.04 cm, body weight: 4.2 ± 0.4 mg, mean ± SD) were provided by Zhejiang Mariculture Research Institute Qingjiang Station (Wenzhou, China). The larvae were maintained in a culture pond at 28 °C, fed four times a day with commercial feed pellets, and collected randomly for PCR testing to verify the WSSV-free status prior to the trial.
Acute toxicity of the coumarin derivatives was investigated by exposing larvae to a range of compound concentrations, from 0.1 mg/L to 100 mg/L of coumarin derivatives, where the dose setting was based on the data from preliminary tests in our laboratory. A DMSO-control (2%, v/v, the highest percentage of DMSO in treatments) served as the control. During the experiment, every 20 larvae were moved into six-well plates filled with 6 mL/per well freshly prepared test solutions for a 72-h incubation at 28 °C with a natural photoperiod. […] To avoid deterioration of water quality, dead shrimps were immediately removed at the point of observation. Three replicate experiments were performed.
Compound response curves were represented by a logistic sigmoidal function with a maximal effect level (Amax) and Hill coefficient representing the sigmoidal transition (Origin 8.1; http://www.originlab.com, accessed on 25 March 2021). Statistical analyses were performed using SPSS (version 18.0) statistical software (SPSS Inc., Chicago, IL, USA). The LC50 and EC50 values with 95% CIs were calculated using probit analysis. Virus titers were log10-transformed prior to statistical analyses. Unpaired Student’s t-tests were used to compare coumarin-treated samples and negative-control DMSO samples for determining significance and data are presented as mean values ± SD.

The test system of data set [3] is white spot syndrome virus (WSSV). Nature of the data set: Continuous immersion with compound exchange after WSSV infection. The settings on record: for survival rate: 10 mg/L. As to the method: For continuous immersion with cultural medium exchange, the culture water in each well was replaced by C2/C7 or DMSO solution after WSSV infection (final viral titer of 1.6 × 10^5 copies/µL) for 24 h. Every 24 h, the shrimp were transformed into a new challenge well with fresh water and a fresh dose of C2/C7 or DMSO (0.2‰) for an additional 5 days. The survival shrimps were euthanized with MS-222 and frozen at −80 °C until processing. The survival of shrimp larvae and the copy number of viral genome in samples were described as above.

Where [4] appears, read: 60 h after exposure, larvae pre-infected 24 h, no exchange, untreated 0%.
[5] abbreviates: at 120 h, compound exchanged one to four times.

Consider `Cc1ccc(C2C(C#N)=C(N)Oc3c2c(=O)oc2ccccc32)cc1` (stereo not drawn) [C2, 2-amino-5-oxo-4-(p-tolyl)-4H,5H-pyrano[3,2-c]chromene-3-carbonitrile], for which, in data set [1], the “change in copy number of the viral genome, pre-exposure vs virus alone” value is given as “slight changes” and the “time to which shrimp death was delayed” value is listed as 96 hpi. Besides, in data set [2], the “signs of toxicity at the saturation concentration” value is “No signs of toxicity were observed”. For the same compound, the survival rate in data set [3] (setting [4]) is given as 50%. Further, the “mortality with continuous immersion of compound exchange” value in data set [3] (at 120 h) is 40%. Besides, the survival rate result in data set [3] (setting [5]) was “more than 60%”.

“2-amino-4-(4-chlorophenyl)-5-oxo-4H,5H-pyrano[3,2-c]chromene-3-carbonitrile [C7]”: the “change in copy number of the viral genome, pre-exposure vs virus alone” value in data set [1] is reported as “slight changes”. The “time to which shrimp death was delayed” value in data set [1] came to 96 hpi. In data set [2], the “signs of toxicity at the saturation concentration” value is given as “No signs of toxicity were observed”. Also, the survival rate in data set [3] (setting [4]) is on record as 50%; in data set [3] (setting [5]) it was “more than 60%”. Moreover, the “mortality with continuous immersion of compound exchange” value in data set [3] (at 120 h) was determined as 40%.

The values are drawn from PMC8036603, “Small Molecule Inhibitors of White Spot Syndrome Virus: Promise in Shrimp Seedling Culture” (International Journal of Molecular Sciences, 2021).
